# Measurements reported in patent publication US20020142982A1, “Method for regulating angiogenesis” (priority 1999, published 2002).
# Assays:
# HUVEC [1] = test: SPP-induced intracellular calcium in HUVEC (Indo-1 fluorescence); format: cell-based, human; settings: HUVEC stimulated with SPP
# Description: Functional assays were used to test for the presence of Gi-coupled and Gq-coupled SPP receptors in HUVEC. First, intracellular calcium levels were measured in response to SPP. For these experiments, cells were grown on 100-mm tissue culture dishes and loaded with the fluorescent calcium-sensitive dye, Indo-1 acetoxymethyl ester (Indo-1/AM, 5 μg/mL; Molecular Probes, Inc., Eugene, Oreg.), for 30 min at 37° C. Cells were then washed with medium M199, briefly trypsinized (0.05% porcine trypsin/0.02% EDTA in HBSS (JRH Biosciences, Lenexa, Kans.), and the trypsin activity was immediately neutralized with soybean trypsin inhibitor (5 μg/mL, Sigma Chemical Co., St. Louis, Mo.). Following centrifugation (250 g×5 min), cells were resuspended in M199 medium to a density of 2.7×10^5 cells/mL. Cells were then stimulated with different doses of SPP. Some cells were pretreated with the Gi inhibitor pertussis toxin (PTx, 500 ng-/mL) for 16 hours. Calcium ion concentration was then quantified by measuring changes in indo-1 fluorescence in 2 mL of cell suspension by a Hitachi F-2000 fluorescence Spectrophotometer with constant stirring. Fluorescence emission was monitored at 400 and 475 nm with excitation at 352 nm. [Ca^+2]1 was calculated as described in Volpi and Berlin, J. Cell Biol., Vol. 107, 2533-39 (1988).
# HUVEC [2] = test: Actin cytoskeleton (stress fibers, cortical actin) in HUVEC, phalloidin staining; format: cell-based, human; settings: 500 nM SPP, 30 minutes
# Description: SPP is known to induce Rho-dependent actin stress fibers in NIH3T3 fibroblasts. To disclose Rho- or Rac-dependence, HUVEC were plated at 2×10^5 cells in 35 mm glass bottom petri dishes (Plastek cultureware, Mat Tek Corporation, Ashland Mass.). Two days later, recently confluent cells were washed and changed to medium M199 supplemented with 10% dialyzed charcoal-stripped fetal bovine serum (CFBS) and growth factors for 16 hours. Approximately 500-800 cells were then microinjected cytoplasmically with Rho inhibitor C3 exoenzyme (0.1 μg/μL, Calbiochem) or dominant negative N17Rac protein (0.35 μg/μl; Ridley, A., et al., Cell 70: 401-410 (1992)) using Femtotips (Eppendorf) at 100 hPa/0.2 sec. Injected cells were marked by coinjection of FITC-rabbit IgG (5 mg/mL, Cappel).
# Subsequently, cells were treated with or without SPP. After treatment cells were washed with ice-cold PBS, fixed with 4% formaldehyde at room temperature or methanol at −20° C. for 15 minutes. In the case of formaldehyde fixation, cells were permeabilized with 0.2% Triton X-100 (TX-100). Actin microfilaments were visualized by staining with either FTOC- or TRITC-conjugated phalloidin (0.05 μg/mL, Sigma) for 30 minutes at room temperature.
# HUVEC [3] = test: Adherens junction assembly in HUVEC, immunofluorescence of VE-cadherin and catenins; format: cell-based, human; settings: 500 nM, 1 hour
# Description: To investigate whether SPP regulates the formation of adherens junction in endothelial cells, HUVEC were plated at a density of 2×10^4 cells/em^2 for 2 days, starved in lipid-depleted medium and treated without (cont) or with SPP (500 nM for 1 hours). For these experiments, after treatment cells were washed with ice-cold PBS, fixed with 4% formaldehyde at room temperature or methanol at −20° C. for 15 minutes. In the case of formaldehyde fixation, cells were permeabilized with 0.2% TX-100. After washing with PBS, cells were stained with antibodies as follows: VE-cadherin ([…], Transduction Labs, San Diego, Calif.; 1 μg/mL, Santa Cruz Biotechnology, Inc., Santa Cruz, Calif.), α-catenin ([…], Transduction Labs), β-catenin (1.25 μg/mL, Transduction Labs; 0.4 μg/mL, Santa Cruz), γ-catenin ([…], Transduction Labs). The primary antibody staining was visualized with FITC-conjugated goat anti-rabbit or TRITC conjugated sheep anti-mouse (1:1000, Cappel, now owned by ICN, Costa Mesa, Calif.) for 30 minutes at room temperature, and imaged on a Zeiss Axiovert 100TV fluorescence microscope. […]
# HUVEC [4] = test: C2-Ceramide-induced apoptosis of HUVEC (DNA fragmentation); format: cell-based, human; settings: SPP 10 to 500 nM, 1 μM C2-Ceramide, 12 hours
# Description: The ability of SPP to protect endothelial cells from apoptosis was investigated. In these experiments, HUVEC were treated with 1 μM C2-Ceramide for 12 hours and apoptosis was measured in the following manner: HUVEC were plated onto coverslips and allowed to grow for 2 days. Cells were washed three times with medium M199, and treated with 1 μM C2-Ceramide (Biomol) for 12 hours in the presence or absence of SPP. Subsequently, cells were fixed with methanol at −20° C. for 5 minutes, air dried, and stained with Hoechst 33258 dye (0.5 μg/mL for 5 minutes; Sigma Chemical Co., St. Louis, Mo.). The apoptotic nuclei were identified with the aid of a Zeiss Axiovert 100TB fluorescence microscope. For quantification, HUVEC were labeled with ^3Hmethyl-thymidine (5 μCi/mL, NEN DuPont) for 24 hours. Following three washes with medium M199, cells were treated with C2-Ceramide as above. 12 hours later, cells were extracted with lysis buffer (5 mM tris, pH 7.4, 2 mM EDTA, 0.5% TX-100) at 4° C. for 20 minutes. After centrifugation (15,000 g, 20 minutes), the radioactivity present in the supernatant and sediment was measured by liquid scintillation counting. The percentage of DNA fragmentation was determined as ((supernatant cpm)/(supernatant cpm+sediment cpm))×100%.
# SPP+PTx and SPP+PD98059 (10 μM), respectively, for 2 hours prior to the addition of C2-Ceramide (1 μM) and SPP (10 to 500 nM). Data are mean±standard deviation of triplicate determinations from a representative experiment which was repeated two times. […] A similar effect was also seen when growth factor withdrawal, and 15-deoxy Δ^12,14 prostaglandin J2 were used as apoptotic stimuli (data not shown). […] Therefore SPP induced endothelial cell survival requires the Gi/ERK signaling pathway.
# [5] = test system: bovine microvascular endothelial cells; test: Morphogenesis of bovine microvascular endothelial cells; format: cell-based; settings: SPP 100 nM to 1 μM, data not shown
compound,measurement,setting,value
"CCCCCCCCCCCCC/C=C/[C@@H](O)[C@@H](N)COP(=O)(O)O [SPP, sphingosine-1-phosphate]",intracellular calcium response,HUVEC [1],robust calcium response
same,formation of stress fibers and cortical actin,HUVEC [2],induced the formation of stress fibers
same,"VE-cadherin, α-, β- and γ-catenin localization at cell-cell junctions",HUVEC [3],dramatically increased
same,protection from apoptosis induced by C2-Ceramide,HUVEC [4],significantly protected
same,morphogenesis of bovine microvascular endothelial cells,[5],induced morphogenesis
